Tested on: HCV genotype-1a variant with glutamine 30 changed to glutamate in the NS5A protein
Format: cell-based
Settings: test compound titrated with BMS-790052 fixed at 200 nM; genotype 1a Q30E replicon
How it was run: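 Synergy was assessed by combining several fixed amounts of an NS5A-targeting compound with a titration of the second compound of interest.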

Row | SMILES | Fold-Synergistic 1a (Q30E)
1 | CC(C)(C)[C@H](NC(=O)C(O)(CF)CF)c1nc(-c2ccc(-c3ccc(-c4c[nH]c([C@@H](NC(=O)C(O)(CF)CF)C(C)(C)C)n4)cc3)cc2)c[nH]1 [Compound N-140] | >100 fold
2 | CC1(C(NC(=O)C2(O)CCC(F)(F)CC2)c2nc(-c3ccc(-c4ccc(-c5c[nH]c(C(NC(=O)C6(O)CCC(F)(F)CC6)C6(C)CC6)n5)cc4)cc3)c[nH]2)CC1.O=C(O)C(F)(F)F.O=C(O)C(F)(F)F (centres unmarked) [Compound P-151] | >100 fold
3 | CC(O)C1(C(=O)N[C@H](c2ncc(-c3ccc(-c4ccc(-c5cnc([C@@H](NC(=O)C6(C(C)O)CC6)C(C)(C)C)[nH]5)cc4)cc3)[nH]2)C(C)(C)C)CC1 (single isomer, unassigned) [Compound B73] | >100 fold
4 | CC(C)[C@H](NC(=O)C(C)(C)NC(=O)OC(C)(C)C)c1ncc(-c2ccc(-c3ccc(-c4cnc([C@@H](NC(=O)C(C)(C)NC(=O)OC(C)(C)C)C(C)C)[nH]4)cc3)cc2)[nH]1 [Compound Y-26] | >100 fold
5 | C[C@H]1CCN(C(=O)C2CCC(F)(F)CC2)C1c1nc(-c2ccc(-c3ccc(-c4c[nH]c([C@@H]5[C@@H](C)CCN5C(=O)C5CCC(F)(F)CC5)n4)cc3)cc2)c[nH]1 (some centres unmarked) [Compound W-188] | >10 fold
6 | COC(=O)NC(C(=O)NC(c1ncc(-c2ccc(-c3ccc(-c4cnc(C5CCCN5C(=O)C(NC(=O)OC)C(C)C)[nH]4)cc3)cc2)[nH]1)C(C)(C)C)C(C)C (centres unmarked) [Compound B-196] | >10 fold
7 | CC(C)(C)OC(=O)C(=O)N[C@H](c1nc(-c2ccc(-c3ccc(-c4c[nH]c([C@@H](NC(=O)C(=O)OC(C)(C)C)C(C)(C)C)n4)cc3)cc2)c[nH]1)C(C)(C)C [Compound W-43A] | >100 fold
8 | CC(C)(C)[C@H](NC(=O)[C@]1(C)C[C@@H](F)CN1)c1nc(-c2ccc(-c3ccc(-c4c[nH]c([C@@H](NC(=O)[C@]5(C)C[C@@H](F)CN5)C(C)(C)C)n4)cc3)cc2)c[nH]1 [Compound W-209] | >100 fold
9 | CC(C)(C)C(=O)N1CCC(C)(C)C1c1nc(-c2ccc(-c3ccc(-c4c[nH]c(C5N(C(=O)C(C)(C)C)CCC5(C)C)n4)cc3)cc2)c[nH]1 (centres unmarked) [Compound W-219] | >10 fold
10 | CC(C)(C)[C@H](NC(=O)[C@H]1C[C@@H]2CC(F)(F)C[C@@H]2C1)c1nc(-c2ccc(-c3ccc(-c4c[nH]c([C@@H](NC(=O)[C@H]5C[C@@H]6CC(F)(F)C[C@@H]6C5)C(C)(C)C)n4)cc3)cc2)c[nH]1 [Compound P-42] | >100 fold
11 | CC(C)(C)C(=O)N[C@H](c1ncc(-c2ccc(-c3ccc(-c4cnc([C@@H](NC(=O)C(C)(C)C)C5(C)CCC5)[nH]4)cc3)cc2)[nH]1)C1(C)CCC1 [Compound Y-39] | >100 fold
12 | CC(C)(C)[C@H](NC(=O)[C@@H]1C[C@@H]2[C@H](C1)C2(F)F)c1nc(-c2ccc(-c3ccc(-c4c[nH]c([C@@H](NC(=O)[C@@H]5C[C@@H]6[C@H](C5)C6(F)F)C(C)(C)C)n4)cc3)cc2)c[nH]1 [Compound Y-9] | >100 fold
13 | CC(C)(C(=O)N[C@H](c1nc(-c2ccc(-c3ccc(-c4c[nH]c([C@@H](NC(=O)C(C)(C)C(O)c5ccccc5)C(C)(C)C)n4)cc3)cc2)c[nH]1)C(C)(C)C)C(O)c1ccccc1 (single isomer, unassigned) [Compound N-127C] | >100 fold
14 | CC(C)[C@H](NC(=O)c1ccc(C(F)(F)F)cc1)c1ncc(-c2ccc(-c3ccc(-c4cnc([C@@H](NC(=O)c5ccc(C(F)(F)F)cc5)C(C)C)[nH]4)cc3)cc2)[nH]1 [Compound S-84] | >100 fold
15 | O=C(N1CCC(F)(F)CC1)C1(c2nc(-c3ccc(-c4ccc(-c5c[nH]c(C6(C(=O)N7CCC(F)(F)CC7)CCC6)n5)cc4)cc3)c[nH]2)CCC1 [Compound P-137] | >10 fold
16 | CC(C)[C@H](NC(=O)C(C)(C)O)c1ncc(-c2ccc(-c3ccc(-c4cnc([C@@H](NC(=O)C(C)(C)O)C(C)C)[nH]4)cc3)cc2)[nH]1 [Compound P-71] | >100 fold
17 | CC(C)[C@H](NC(=O)CCN1CCCC1=O)c1ncc(-c2ccc(-c3ccc(-c4cnc([C@@H](NC(=O)CCN5CCCC5=O)C(C)C)[nH]4)cc3)cc2)[nH]1 [Compound S-59] | <10 fold
18 | CC(C)(C)[C@H](NC(=O)C1(F)CCC(F)(F)CC1)c1nc(-c2ccc(-c3ccc(-c4c[nH]c([C@@H](NC(=O)C5(F)CCC(F)(F)CC5)C(C)(C)C)n4)cc3)cc2)c[nH]1 [Compound P-39] | >100 fold
19 | CC(C)[C@H](NC(=O)c1ccc(C(F)(F)F)s1)c1ncc(-c2ccc(-c3ccc(-c4cnc([C@@H](NC(=O)c5ccc(C(F)(F)F)s5)C(C)C)[nH]4)cc3)cc2)[nH]1 [Compound Y-21] | >100 fold
20 | CC(C)[C@H](NC(=O)C1(c2ccc(F)cc2)CCC1)c1ncc(-c2ccc(-c3ccc(-c4cnc([C@@H](NC(=O)C5(c6ccc(F)cc6)CCC5)C(C)C)[nH]4)cc3)cc2)[nH]1 [Compound P-82] | >100 fold
21 | CC(C)(C)[C@H](NC(=O)C(C)(O)C1(C)CC1)c1nc(-c2ccc(-c3ccc(-c4c[nH]c([C@@H](NC(=O)C(C)(O)C5(C)CC5)C(C)(C)C)n4)cc3)cc2)c[nH]1 (single isomer, unassigned) [Compound L-93c] | >100 fold

Row | SMILES | Fold-Synergistic 1a (Q30E)
22 | CC(C)[C@H](NC(=O)C(C)(C)OCC(F)(F)F)c1ncc(-c2ccc(-c3ccc(-c4cnc([C@@H](NC(=O)C(C)(C)OCC(F)(F)F)C(C)C)[nH]4)cc3)cc2)[nH]1 [Compound Y-31] | >100 fold
23 | CC(C)[C@H](NC(=O)c1ccccc1N(C)C)c1ncc(-c2ccc(-c3ccc(-c4cnc([C@@H](NC(=O)c5ccccc5N(C)C)C(C)C)[nH]4)cc3)cc2)[nH]1 [Compound S-91] | >100 fold
24 | CC(C)[C@H](NC(=O)C1CCC(F)(F)CC1)c1ncc(-c2ccc(-c3ccc(-c4cnc([C@@H](NC(=O)C5CCC(F)(F)CC5)C(C)C)n4C)cc3)cc2)n1C [Compound B-200] | <10 fold
25 | Cc1noc(C)c1C(=O)N[C@H](c1ncc(-c2ccc(-c3ccc(-c4cnc([C@@H](NC(=O)c5c(C)noc5C)C(C)C)[nH]4)cc3)cc2)[nH]1)C(C)C [Compound S-96] | >100 fold
26 | CC(C)[C@H](NC(=O)c1ccc(F)cc1)c1ncc(-c2ccc(-c3ccc(-c4cnc([C@@H](NC(=O)c5ccc(F)cc5)C(C)C)[nH]4)cc3)cc2)[nH]1 [Compound S-82] | >100 fold
27 | CC(C)(C)[C@H](NC(=O)C1CC2(C1)OCCO2)c1nc(-c2ccc(-c3ccc(-c4c[nH]c([C@@H](NC(=O)C5CC6(C5)OCCO6)C(C)(C)C)n4)cc3)cc2)c[nH]1 (some centres unmarked) [Compound W-178] | >100 fold
28 | CC(C)(C)[C@H](NC(=O)C(C)(C)C1(O)CCC(F)(F)CC1)c1ncc(-c2ccc(-c3ccc4nc([C@@H](NC(=O)C(C)(C)C5(O)CCC(F)(F)CC5)C(C)(C)C)[nH]c4c3)cc2)[nH]1 [Compound B58A] | >100 fold
29 | CC(C)(F)C(NC(=O)C1CCC(F)(F)CC1)c1nc(-c2ccc(-c3ccc(-c4c[nH]c(C(NC(=O)C5CCC(F)(F)CC5)C(C)(C)F)n4)cc3)cc2)c[nH]1 (single isomer, unassigned) [Compound N-106C] | >100 fold
30 | COC(=O)C12CCC(C(=O)N[C@H](c3nc(-c4ccc(-c5ccc(-c6c[nH]c([C@@H](NC(=O)C78CCC(C(=O)OC)(CC7)CC8)C(C)(C)C)n6)cc5)cc4)c[nH]3)C(C)(C)C)(CC1)CC2 [Compound W-127] | >100 fold
31 | CC(C)(F)C(=O)N[C@H](c1ncc(-c2ccc(-c3ccc(-c4cnc([C@@H](NC(=O)C(C)(C)F)C5(C)CC5)[nH]4)cc3)cc2)[nH]1)C1(C)CC1 [Compound Y-36] | >100 fold
32 | COC(c1ccccc1)C1(C(=O)N[C@H](c2nc(-c3ccc(-c4ccc(-c5c[nH]c([C@@H](NC(=O)C6(C(OC)c7ccccc7)CC6)C(C)(C)C)n5)cc4)cc3)c[nH]2)C(C)(C)C)CC1 (single isomer, unassigned) [Compound N-137B] | >100 fold
33 | CC(C)(C)[C@H](NC(=O)C1(C(F)(F)F)CCCC1)c1nc(-c2ccc(-c3ccc(-c4c[nH]c([C@@H](NC(=O)C5(C(F)(F)F)CCCC5)C(C)(C)C)n4)cc3)cc2)c[nH]1 [Compound N-52] | >100 fold
34 | CCNC(=O)C(=O)N[C@H](c1nc(-c2ccc(-c3ccc(-c4c[nH]c([C@@H](NC(=O)C(=O)OC(C)(C)C)C(C)(C)C)n4)cc3)cc2)c[nH]1)C(C)(C)C [Compound W-43B] | >100 fold
35 | CO[C@@H](C(=O)N[C@H](c1ncc(-c2ccc(-c3ccc(-c4cnc([C@@H](NC(=O)[C@H](OC)c5ccccc5)C(C)C)[nH]4)cc3)cc2)[nH]1)C(C)C)c1ccccc1 [Compound P-75] | >100 fold
36 | CC(C)(C)[C@H](NC(=O)C(=O)O)c1nc(-c2ccc(-c3ccc(-c4c[nH]c([C@@H](NC(=O)C(=O)O)C(C)(C)C)n4)cc3)cc2)c[nH]1 [Compound W-44] | >10 fold
37 | CC(C)(C(=O)N[C@H](c1nc(-c2ccc(-c3ccc(-c4cnc([C@@H](NC(=O)C(C)(C)C5CCCO5)C(C)(C)C)[nH]4)cc3)cc2)c[nH]1)C(C)(C)C)C1CCCO1 (single isomer, unassigned) [Compound B-169] | >100 fold
38 | CO[C@H](C)[C@H](NC(=O)C1CCC(F)(F)CC1)c1nc(-c2ccc(-c3ccc(-c4c[nH]c([C@@H](NC(=O)C5CCC(F)(F)CC5)[C@@H](C)OC)n4)cc3)cc2)c[nH]1 [Compound L-98] | <10 fold
39 | CC1CCCCN1C(=O)C(=O)NC(c1nc(-c2ccc(-c3ccc(-c4c[nH]c(C(NC(=O)C(=O)N5CCCCC5C)C(C)(C)C)n4)cc3)cc2)c[nH]1)C(C)(C)C (centres unmarked) [Compound W-38] | >100 fold
40 | COCC(NC(=O)C(C)(C)C)c1nc(-c2ccc(-c3ccc(-c4c[nH]c(C(COC)NC(=O)C(C)(C)C)n4)cc3)cc2)c[nH]1 [Compound L-105] | >100 fold
41 | CCCC(=O)N[C@H](c1ncc(-c2ccc(-c3ccc(-c4cnc([C@@H](NC(=O)CCC)C(C)C)[nH]4)cc3)cc2)[nH]1)C(C)C [Compound S-33] | >100 fold
